≈ marks a conversion by molar mass, not a printed value. Calls of active or inactive are those of the source. No cut-off for these calls is given here.
Experiments:
[1] = system: Staphylococcus aureus; assay: Bactericidal activity against methicillin-resistant Staphylococcus aureus incubated in dark for 30 mins followed by exposure to light fluences at 650 nm and 6 J/cm2 and then incubated overnight followed by further incubation on LB agar plates for another 24 hrs; type: functional; settings: light or radiation study
[2] = system: Pseudomonas aeruginosa; assay: Drug uptake in Pseudomonas aeruginosa ATCC 27853 at 12.5 uM by confocal laser scanning microscopy; type: ADME, organism-based; settings: in vivo
[3] = system: Escherichia coli; assay: Antibacterial activity against Escherichia coli ATCC 25922 incubated in dark for 30 mins followed by exposure to light fluences at 650 nm and 6 J/cm2 and then incubated overnight measured after 24 hrs; type: functional; settings: ATCC 25922, light or radiation study
[4] = system: Pseudomonas aeruginosa; assay: Bactericidal activity against Pseudomonas aeruginosa ATCC 27853 incubated in dark for 30 mins followed by exposure to light fluences at 650 nm and 6 J/cm2 and then incubated overnight followed by further incubation on LB agar plates for another 24 hrs; type: functional; settings: ATCC 27853, light or radiation study
[5] = Octanol water partition coefficient, log P of the compound by reverse-phase thin-layer chromatography; type: physicochemical
[6] = system: Staphylococcus aureus; assay: Drug uptake in methicillin-resistant Staphylococcus aureus at 12.5 uM by confocal laser scanning microscopy; type: ADME, organism-based; settings: in vivo
[7] = Photostability at 2 x 10^-5 mol/L exposed to 4.2 mW/cm2 light energy density assessed as change in absorption spectra after 30 mins post irradiation; type: physicochemical; settings: 0.5 h, 20 µM
[8] = system: Pseudomonas aeruginosa; assay: Antibacterial activity against Pseudomonas aeruginosa ATCC 27853 incubated in dark for 30 mins and grown for 24 hrs followed by further incubation on LB agar plates for another 24 hrs; type: functional
[9] = system: Escherichia coli; assay: Antibacterial activity against Escherichia coli ATCC 25922 incubated in dark for 30 mins measured after 24 hrs; type: functional
[10] = system: Staphylococcus aureus; assay: Antibacterial activity against methicillin-resistant Staphylococcus aureus incubated in dark for 30 mins followed by exposure to light fluences at 650 nm and 6 J/cm2 and then incubated overnight measured after 24 hrs; type: functional; settings: light or radiation study
[11] = system: Escherichia coli; assay: Antibacterial activity against Escherichia coli ATCC 25922 incubated in dark for 30 mins and grown for 24 hrs followed by further incubation on LB agar plates for another 24 hrs; type: functional
[12] = system: Staphylococcus aureus; assay: Antibacterial activity against methicillin-resistant Staphylococcus aureus incubated in dark for 30 mins measured after 24 hrs; type: functional
[13] = system: Pseudomonas aeruginosa; assay: Antibacterial activity against Pseudomonas aeruginosa ATCC 27853 incubated in dark for 30 mins followed by exposure to light fluences at 650 nm and 6 J/cm2 and then incubated overnight measured after 24 hrs; type: functional; settings: ATCC 27853, light or radiation study
[14] = system: Escherichia coli; assay: Bactericidal activity against Escherichia coli ATCC 25922 incubated in dark for 30 mins followed by exposure to light fluences at 650 nm and 6 J/cm2 and then incubated overnight followed by further incubation on LB agar plates for another 24 hrs; type: functional; settings: ATCC 25922, light or radiation study
[15] = system: Staphylococcus aureus; assay: Antibacterial activity against methicillin-resistant Staphylococcus aureus incubated in dark for 30 mins and grown for 24 hrs followed by further incubation on LB agar plates for another 24 hrs; type: functional
[16] = Singlet oxygen generation of the compound exposed to 4.2 mW/cm2 light energy density assessed as singlet oxygen quantum yield measured at 410 nm in 10 seconds intervals of irradiation at 0.2 uM by DPBF scavenger based assay
[17] = system: Escherichia coli; assay: Drug uptake in Escherichia coli ATCC 25922 at 12.5 uM by confocal laser scanning microscopy; type: ADME, organism-based; settings: in vivo
[18] = system: Pseudomonas aeruginosa; assay: Antibacterial activity against Pseudomonas aeruginosa ATCC 27853 incubated in dark for 30 mins measured after 24 hrs; type: functional
[19] = system: Pseudomonas aeruginosa; assay: Antibacterial activity against Pseudomonas aeruginosa ATCC 27853 assessed as log reduction in bacterial count at 10 uM incubated in dark for 30 mins followed by exposure to light fluences at 650 nm and 6 J/cm2 and then incubated overnight measured after 24 hrs; type: functional
[20] = system: Escherichia coli; assay: Antibacterial activity against Escherichia coli ATCC 25922 assessed as log reduction in bacterial count at 10 uM incubated in dark for 30 mins followed by exposure to light fluences at 650 nm and 6 J/cm2 and then incubated overnight measured after 24 hrs; type: functional
[21] = system: Staphylococcus aureus; assay: Antibacterial activity against methicillin-resistant Staphylococcus aureus assessed as log reduction in bacterial count at 10 uM incubated in dark for 30 mins followed by exposure to light fluences at 650 nm and 6 J/cm2 and then incubated overnight measured after 24 hrs; type: functional
[22] = system: Pseudomonas aeruginosa; assay: Antibacterial activity against Pseudomonas aeruginosa ATCC 27853 at 3.91 uM to 62.50 uM incubated in dark for 30 mins followed by exposure to light fluences at 650 nm and 6 J/cm2 and then incubated overnight measured after 24 hrs; type: functional, organism-based
[23] = system: Staphylococcus aureus; assay: Antibacterial activity against methicillin-resistant Staphylococcus aureus at 0.49 uM to 7.8 uM incubated in dark for 30 mins followed by exposure to light fluences at 650 nm and 6 J/cm2 and then incubated overnight measured after 24 hrs; type: functional, organism-based
[24] = system: Escherichia coli; assay: Antibacterial activity against Escherichia coli ATCC 25922 at 0.49 uM to 7.8 uM incubated in dark for 30 mins followed by exposure to light fluences at 650 nm and 6 J/cm2 and then incubated overnight measured after 24 hrs; type: functional, organism-based
[25] = system: Escherichia coli; assay: Antibacterial activity against Escherichia coli ATCC 25922 at 3.91 uM to 62.50 uM incubated in dark for 30 mins followed by exposure to light fluences at 650 nm and 6 J/cm2 and then incubated overnight measured after 24 hrs; type: functional, organism-based
[26] = system: Pseudomonas aeruginosa; assay: Antibacterial activity against Pseudomonas aeruginosa ATCC 27853 at 0.49 uM to 7.8 uM incubated in dark for 30 mins followed by exposure to light fluences at 650 nm and 6 J/cm2 and then incubated overnight measured after 24 hrs; type: functional, organism-based

SMILES | MBC [1] [µM] | MIC [3] [µM] | MBC [4] [µM] | logP [5] | Activity [7] [%] | MBC [8] [µM] | MIC [9] [µM] | MIC [10] [µM] | MBC [11] [µM] | MIC [12] [µM] | MIC [13] [µM] | MBC [14] [µM] | MBC [15] [µM] | Activity [16] | MIC [18] [µM] | log reduction in bacterial count [19] | log reduction in bacterial count [20] | Log reduction in bacterial count [21] | other results
NCCCC[C@H](N)C(=O)Nc1ccc(-c2c3nc(c(-c4ccccc4)c4ccc([nH]4)c(-c4ccccc4)c4nc(c(-c5ccccc5)c5ccc2[nH]5)C=C4)C=C3)cc1 | > 500 | 500 (≈ 379 µg/mL) | 500 (≈ 379 µg/mL) | 1.69 | < 20 | > 500 | > 500 | 500 (≈ 379 µg/mL) | > 500 | > 500 | 250 (≈ 189 µg/mL) | > 500 | > 500 | 0.83 | 500 (≈ 379 µg/mL) | – | – | – | Drug uptake [2]: Not Active; Drug uptake [6]: Not Active; Drug uptake [17]: Not Active
NCCCC[C@H](N)C(=O)Nc1ccc(-c2c3nc(c(-c4ccc(NC(=O)[C@@H](N)CCCCN)cc4)c4ccc([nH]4)c(-c4ccc(NC(=O)[C@@H](N)CCCCN)cc4)c4nc(c(-c5ccc(N)cc5)c5ccc2[nH]5)C=C4)C=C3)cc1 | 62.5 (≈ 66.2 µg/mL) | 15.6 (≈ 16.5 µg/mL) | 62.5 (≈ 66.2 µg/mL) | 1.21 | < 20 | > 500 | 125 (≈ 132 µg/mL) | 31.2 (≈ 33.1 µg/mL) | > 500 | 125 (≈ 132 µg/mL) | 31.2 (≈ 33.1 µg/mL) | 31.2 (≈ 33.1 µg/mL) | 500 (≈ 530 µg/mL) | 0.73 | 250 (≈ 265 µg/mL) | 1 | 3 | 3 | –
NCCCC[C@H](N)C(=O)Nc1ccc(-c2c3nc(c(-c4ccccc4)c4ccc([nH]4)c(-c4ccc(NC(=O)[C@@H](N)CCCCN)cc4)c4nc(c(-c5ccccc5)c5ccc2[nH]5)C=C4)C=C3)cc1 | 31.2 (≈ 28.2 µg/mL) | 15.6 (≈ 14.1 µg/mL) | 62.5 (≈ 56.3 µg/mL) | 1.37 | < 20 | 125 (≈ 113 µg/mL) | 62.5 (≈ 56.3 µg/mL) | 15.6 (≈ 14.1 µg/mL) | 125 (≈ 113 µg/mL) | 125 (≈ 113 µg/mL) | 31.2 (≈ 28.2 µg/mL) | 31.2 (≈ 28.2 µg/mL) | 250 (≈ 225 µg/mL) | 0.57 | 62.5 (≈ 56.3 µg/mL) | >5 | 2 | 3 | –
N=C(N)NCCC[C@H](N)C(=O)Nc1ccc(-c2c3nc(c(-c4ccccc4)c4ccc([nH]4)c(-c4ccccc4)c4nc(c(-c5ccccc5)c5ccc2[nH]5)C=C4)C=C3)cc1 | 125 (≈ 98.2 µg/mL) | 62.5 (≈ 49.1 µg/mL) | 125 (≈ 98.2 µg/mL) | 1.45 | < 20 | 250 (≈ 196 µg/mL) | 62.5 (≈ 49.1 µg/mL) | 62.5 (≈ 49.1 µg/mL) | 125 (≈ 98.2 µg/mL) | 125 (≈ 98.2 µg/mL) | 62.5 (≈ 49.1 µg/mL) | 125 (≈ 98.2 µg/mL) | 250 (≈ 196 µg/mL) | 0.71 | 125 (≈ 98.2 µg/mL) | – | – | – | Activity [22]: inactive; Activity [23]: inactive; Activity [24]: inactive; Activity [25]: inactive; Activity [26]: inactive
NCCCC[C@H](N)C(=O)Nc1ccc(-c2c3nc(c(-c4ccc(N)cc4)c4ccc([nH]4)c(-c4ccc(NC(=O)[C@@H](N)CCCCN)cc4)c4nc(c(-c5ccc(N)cc5)c5ccc2[nH]5)C=C4)C=C3)cc1 | 15.6 (≈ 14.6 µg/mL) | 15.6 (≈ 14.6 µg/mL) | 31.2 (≈ 29.1 µg/mL) | 1.3 | < 20 | 500 (≈ 466 µg/mL) | 250 (≈ 233 µg/mL) | 7.81 (≈ 7.27 µg/mL) | 500 (≈ 466 µg/mL) | 125 (≈ 116 µg/mL) | 15.6 (≈ 14.6 µg/mL) | 31.2 (≈ 29.1 µg/mL) | 250 (≈ 233 µg/mL) | 0.79 | 250 (≈ 233 µg/mL) | >5 | 2 | 3 | –
N[C@@H](Cc1c[nH]cn1)C(=O)Nc1ccc(-c2c3nc(c(-c4ccccc4)c4ccc([nH]4)c(-c4ccccc4)c4nc(c(-c5ccccc5)c5ccc2[nH]5)C=C4)C=C3)cc1 | 250 (≈ 192 µg/mL) | 62.5 (≈ 47.9 µg/mL) | 125 (≈ 95.9 µg/mL) | 1.6 | < 20 | 250 (≈ 192 µg/mL) | 125 (≈ 95.9 µg/mL) | 125 (≈ 95.9 µg/mL) | 250 (≈ 192 µg/mL) | 125 (≈ 95.9 µg/mL) | 62.5 (≈ 47.9 µg/mL) | 125 (≈ 95.9 µg/mL) | 500 (≈ 383 µg/mL) | 0.56 | 125 (≈ 95.9 µg/mL) | – | – | – | Activity [22]: inactive; Activity [23]: inactive; Activity [24]: inactive; Activity [25]: inactive; Activity [26]: inactive
NCCCC[C@H](N)C(=O)Nc1ccc(-c2c3nc(c(-c4ccc(NC(=O)[C@@H](N)CCCCN)cc4)c4ccc([nH]4)c(-c4ccccc4)c4nc(c(-c5ccccc5)c5ccc2[nH]5)C=C4)C=C3)cc1 | 62.5 (≈ 56.3 µg/mL) | 31.2 (≈ 28.2 µg/mL) | 62.5 (≈ 56.3 µg/mL) | 1.39 | < 20 | 125 (≈ 113 µg/mL) | 125 (≈ 113 µg/mL) | 31.2 (≈ 28.2 µg/mL) | 250 (≈ 225 µg/mL) | 62.5 (≈ 56.3 µg/mL) | 31.2 (≈ 28.2 µg/mL) | 62.5 (≈ 56.3 µg/mL) | 125 (≈ 113 µg/mL) | 0.65 | 62.5 (≈ 56.3 µg/mL) | >5 | 2 | 3 | –
